From patent publication US20250114374A1, “BCL-2 INHIBITORS” (Newave Pharmaceutical Inc., priority 2021, published 2025)
Where two headings read alike, the source gives them in different places.

Tested on: RS4; 11 with G101V mutation
Test: In vitro anti-proliferation assay (ATPlite luminescence) in BCL-2-dependent ALL cell line RS4;11 with G101V mutation
Format: cell-based
Conditions: read-out: RS411-G101V IC50
Summary of the method: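 IC50 came from luminescent ATP quantification (ATPlite) following cell lysis. Compound dose ranges were applied for roughly 72 h to about 1×10^4 G101V-mutant RS4;11 cells per well, in 10% FBS medium.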

[1] = cellular anti-proliferative IC50, about 72 hours, medium with 10% FBS, ATPlite

CC(C)Oc1ccccc1[C@@H]1CN([C@H]2CCOc3cc(F)c(F)cc32)CCN1C1CC2(CCN(c3ccc(C(=O)NS(=O)(=O)c4cc5c(c([N+](=O)[O-])c4)N[C@H](C4CCOCC4)CO5)c(N4c5cc6cc[nH]c6nc5O[C@H]5COCC[C@@H]54)c3)CC2)C1 [Example 210, 4-{2-[(2R)-4-[(4S)-6,7-difluoro-3,4-dihydro-2H-1-benzopyran-4-yl]-2-(2-isopropoxyphenyl)piperazin-1-yl]-7-azaspiro[3.5]nonan-7-yl}-2-[(3R,8S)-2,5-dioxa-9,15,17-triazatetracyclo[8.7.0.0^{3,8}.0^{12,16}]heptadeca-1(10),11,13,16-tetraen-9-yl]-N-[(3R)-5-nitro-3-(oxan-4-yl)-3,4-dihydro-2H-1,4-benzoxazin-7-ylsulfonyl]benzamide]
IC50 [1]: 37.8 nM

CC(C)Oc1ccccc1[C@@H]1CN([C@@H]2CCOc3cc(F)c(F)cc32)CCN1C1CC2(CCN(c3ccc(C(=O)NS(=O)(=O)c4cc5c(c([N+](=O)[O-])c4)N[C@H](C4CCOCC4)CO5)c(N4c5cc6cc[nH]c6nc5O[C@H]5COCC[C@@H]54)c3)CC2)C1 [Example 211, 4-{2-[(2R)-4-[(4R)-6,7-difluoro-3,4-dihydro-2H-1-benzopyran-4-yl]-2-(2-isopropoxyphenyl)piperazin-1-yl]-7-azaspiro[3.5]nonan-7-yl}-2-[(3R,8S)-2,5-dioxa-9,15,17-triazatetracyclo[8.7.0.0^{3,8}.0^{12,16}]heptadeca-1(10),11,13,16-tetraen-9-yl]-N-[(3R)-5-nitro-3-(oxan-4-yl)-3,4-dihydro-2H-1,4-benzoxazin-7-ylsulfonyl]benzamide]
IC50 [1]: 87.2 nM

CC(C)Oc1ccccc1[C@@H]1CN([C@@H]2CCOc3c2ccc(F)c3F)CCN1C1CC2(CCN(c3ccc(C(=O)NS(=O)(=O)c4cc5c(c([N+](=O)[O-])c4)N[C@H](C4CCOCC4)CO5)c(N4c5cc6cc[nH]c6nc5O[C@H]5COCC[C@@H]54)c3)CC2)C1 [Example 212, 4-{2-[(2R)-4-[(4R)-7,8-difluoro-3,4-dihydro-2H-1-benzopyran-4-yl]-2-(2-isopropoxyphenyl)piperazin-1-yl]-7-azaspiro[3.5]nonan-7-yl}-2-[(3R,8S)-2,5-dioxa-9,15,17-triazatetracyclo[8.7.0.0^{3,8}.0^{12,16}]heptadeca-1(10),11,13,16-tetraen-9-yl]-N-[(3R)-5-nitro-3-(oxan-4-yl)-3,4-dihydro-2H-1,4-benzoxazin-7-ylsulfonyl]benzamide]
IC50 [1]: 33.5 nM

CC(C)Oc1ccccc1[C@@H]1CN([C@H]2CCOc3c2ccc(F)c3F)CCN1C1CC2(CCN(c3ccc(C(=O)NS(=O)(=O)c4cc5c(c([N+](=O)[O-])c4)N[C@H](C4CCOCC4)CO5)c(N4c5cc6cc[nH]c6nc5O[C@H]5COCC[C@@H]54)c3)CC2)C1 [Example 213, 4-{2-[(2R)-4-[(4S)-7,8-difluoro-3,4-dihydro-2H-1-benzopyran-4-yl]-2-(2-isopropoxyphenyl)piperazin-1-yl]-7-azaspiro[3.5]nonan-7-yl}-2-[(3R,8S)-2,5-dioxa-9,15,17-triazatetracyclo[8.7.0.0^{3,8}.0^{12,16}]heptadeca-1(10),11,13,16-tetraen-9-yl]-N-[(3R)-5-nitro-3-(oxan-4-yl)-3,4-dihydro-2H-1,4-benzoxazin-7-ylsulfonyl]benzamide]
IC50 [1]: 23.8 nM

CC(C)Oc1ccccc1[C@@H]1CN([C@H]2CCOc3c(F)cc(F)cc32)CCN1C1CC2(CCN(c3ccc(C(=O)NS(=O)(=O)c4cc5c(c([N+](=O)[O-])c4)N[C@H](C4CCOCC4)CO5)c(N4c5cc6cc[nH]c6nc5O[C@H]5COCC[C@@H]54)c3)CC2)C1 [Example 214, 4-(2-((R)-4-((S)-6,8-difluorochroman-4-yl)-2-(2-isopropoxyphenyl)piperazin-1-yl)-7-azaspiro[3.5]nonan-7-yl)-N-(((R)-5-nitro-3-(tetrahydro-2H-pyran-4-yl)-3,4-dihydro-2H-benzo[b][1,4]oxazin-7-yl)sulfonyl)-2-((5aS,9aR)-6,7,9,9a-tetrahydro-1H-pyrano[3,4-b]pyrrolo[3′,2′:5,6]pyrido[3,2-e][1,4]oxazin-5(5aH)-yl)benzamide]
IC50 (Homo sapiens, RS4-11, 72 h): 385 nM

CC(C)Oc1ccccc1[C@@H]1CN([C@@H]2CCOc3c(F)cc(F)cc32)CCN1C1CC2(CCN(c3ccc(C(=O)NS(=O)(=O)c4cc5c(c([N+](=O)[O-])c4)N[C@H](C4CCOCC4)CO5)c(N4c5cc6cc[nH]c6nc5O[C@H]5COCC[C@@H]54)c3)CC2)C1 [Example 215, 4-(2-((R)-4-((R)-6,8-difluorochroman-4-yl)-2-(2-isopropoxyphenyl)piperazin-1-yl)-7-azaspiro[3.5]nonan-7-yl)-N-(((R)-5-nitro-3-(tetrahydro-2H-pyran-4-yl)-3,4-dihydro-2H-benzo[b][1,4]oxazin-7-yl)sulfonyl)-2-((5aS,9aR)-6,7,9,9a-tetrahydro-1H-pyrano[3,4-b]pyrrolo[3′,2′:5,6]pyrido[3,2-e][1,4]oxazin-5(5aH)-yl)benzamide]
IC50 (Homo sapiens, RS4-11, 72 h): 48 nM

CC(C)Oc1ccccc1[C@@H]1CN([C@H]2COCc3cc(F)c(F)cc32)CCN1C1CC2(CCN(c3ccc(C(=O)NS(=O)(=O)c4cc5c(c([N+](=O)[O-])c4)N[C@H](C4CCOCC4)CO5)c(N4c5cc6cc[nH]c6nc5O[C@H]5COCC[C@@H]54)c3)CC2)C1 [Example 216, 4-(2-((R)-4-((R)-6,7-difluoroisochroman-4-yl)-2-(2-isopropoxyphenyl)piperazin-1-yl)-7-azaspiro[3.5]nonan-7-yl)-N-(((R)-5-nitro-3-(tetrahydro-2H-pyran-4-yl)-3,4-dihydro-2H-benzo[b][1,4]oxazin-7-yl)sulfonyl)-2-((5aS,9aR)-6,7,9,9a-tetrahydro-1H-pyrano[3,4-b]pyrrolo[3′,2′:5,6]pyrido[3,2-e][1,4]oxazin-5(5aH)-yl)benzamide]
IC50 (Homo sapiens, RS4-11, 72 h): 30.6 nM

CC(C)Oc1ccccc1[C@@H]1CN([C@@H]2COCc3cc(F)c(F)cc32)CCN1C1CC2(CCN(c3ccc(C(=O)NS(=O)(=O)c4cc5c(c([N+](=O)[O-])c4)N[C@H](C4CCOCC4)CO5)c(N4c5cc6cc[nH]c6nc5O[C@H]5COCC[C@@H]54)c3)CC2)C1 [Example 217, 4-(2-((R)-4-((S)-6,7-difluoroisochroman-4-yl)-2-(2-isopropoxyphenyl)piperazin-1-yl)-7-azaspiro[3.5]nonan-7-yl)-N-(((R)-5-nitro-3-(tetrahydro-2H-pyran-4-yl)-3,4-dihydro-2H-benzo[b][1,4]oxazin-7-yl)sulfonyl)-2-((5aS,9aR)-6,7,9,9a-tetrahydro-1H-pyrano[3,4-b]pyrrolo[3′,2′:5,6]pyrido[3,2-e][1,4]oxazin-5(5aH)-yl)benzamide]
IC50 (Homo sapiens, RS4-11, 72 h): 94.9 nM

CC(C)Oc1ccccc1[C@@H]1CN([C@H]2CCOc3nc(N4CCOC[C@@H]4C)c(F)cc32)CCN1C1CC2(CCN(c3ccc(C(=O)NS(=O)(=O)c4cc5c(c([N+](=O)[O-])c4)N[C@H](C4CCOCC4)CO5)c(N4c5cc6cc[nH]c6nc5O[C@H]5COCC[C@@H]54)c3)CC2)C1 [Example 218, 4-(2-((R)-4-((S)-6-fluoro-7-((S)-3-methylmorpholino)-3,4-dihydro-2H-pyrano[2,3-b]pyridin-4-yl)-2-(2-isopropoxyphenyl)piperazin-1-yl)-7-azaspiro[3.5]nonan-7-yl)-N-(((R)-5-nitro-3-(tetrahydro-2H-pyran-4-yl)-3,4-dihydro-2H-benzo[b][1,4]oxazin-7-yl)sulfonyl)-2-((5aS,9aR)-6,7,9,9a-tetrahydro-1H-pyrano[3,4-b]pyrrolo[3′,2′:5,6]pyrido[3,2-e][1,4]oxazin-5(5aH)-yl)benzamide]
IC50 (Homo sapiens, RS4-11, 72 h): 121 nM

CC(C)Oc1ccccc1[C@@H]1CN([C@@H]2CCOc3nc(N4CCOC[C@@H]4C)c(F)cc32)CCN1C1CC2(CCN(c3ccc(C(=O)NS(=O)(=O)c4cc5c(c([N+](=O)[O-])c4)N[C@H](C4CCOCC4)CO5)c(N4c5cc6cc[nH]c6nc5O[C@H]5COCC[C@@H]54)c3)CC2)C1 [Example 219, 4-(2-((R)-4-((R)-6-fluoro-7-((S)-3-methylmorpholino)-3,4-dihydro-2H-pyrano[2,3-b]pyridin-4-yl)-2-(2-isopropoxyphenyl)piperazin-1-yl)-7-azaspiro[3.5]nonan-7-yl)-N-(((R)-5-nitro-3-(tetrahydro-2H-pyran-4-yl)-3,4-dihydro-2H-benzo[b][1,4]oxazin-7-yl)sulfonyl)-2-((5aS,9aR)-6,7,9,9a-tetrahydro-1H-pyrano[3,4-b]pyrrolo[3′,2′:5,6]pyrido[3,2-e][1,4]oxazin-5(5aH)-yl)benzamide]
IC50 (Homo sapiens, RS4-11, 72 h): 56.3 nM

CC(C)Oc1ccccc1[C@@H]1CN([C@@H]2COc3c(F)cc(F)cc3C2)CCN1C1CC2(CCN(c3ccc(C(=O)NS(=O)(=O)c4cc5c(c([N+](=O)[O-])c4)N[C@H](C4CCOCC4)CO5)c(N4c5cc6cc[nH]c6nc5O[C@H]5COCC[C@@H]54)c3)CC2)C1 [Example 220, 4-(2-((R)-4-((S)-6,8-difluorochroman-3-yl)-2-(2-isopropoxyphenyl)piperazin-1-yl)-7-azaspiro[3.5]nonan-7-yl)-N-(((R)-5-nitro-3-(tetrahydro-2H-pyran-4-yl)-3,4-dihydro-2H-benzo[b][1,4]oxazin-7-yl)sulfonyl)-2-((5aS,9aR)-6,7,9,9a-tetrahydro-1H-pyrano[3,4-b]pyrrolo[3′,2′:5,6]pyrido[3,2-e][1,4]oxazin-5(5aH)-yl)benzamide]
IC50 (Homo sapiens, RS4-11, 72 h): 261 nM

CC(C)Oc1ccccc1[C@@H]1CN([C@H]2COc3c(F)cc(F)cc3C2)CCN1C1CC2(CCN(c3ccc(C(=O)NS(=O)(=O)c4cc5c(c([N+](=O)[O-])c4)N[C@H](C4CCOCC4)CO5)c(N4c5cc6cc[nH]c6nc5O[C@H]5COCC[C@@H]54)c3)CC2)C1 [Example 221, 4-(2-((R)-4-((R)-6,8-difluorochroman-3-yl)-2-(2-isopropoxyphenyl)piperazin-1-yl)-7-azaspiro[3.5]nonan-7-yl)-N-(((R)-5-nitro-3-(tetrahydro-2H-pyran-4-yl)-3,4-dihydro-2H-benzo[b][1,4]oxazin-7-yl)sulfonyl)-2-((5aS,9aR)-6,7,9,9a-tetrahydro-1H-pyrano[3,4-b]pyrrolo[3′,2′:5,6]pyrido[3,2-e][1,4]oxazin-5(5aH)-yl)benzamide]
IC50 (Homo sapiens, RS4-11, 72 h): 130 nM
